Assay [1] relates to rat femur bone defect. Particulars: 6 weeks after implantation.
Experimental: (§1) For anesthesia, an intraperitoneal injection with a mixture of ketamin hydrochloride (100 mg/ml per 80 mg/kg body weight) and xylazin 2% (12 mg/kg body weight) were used. The left thigh was shaved and a 3 cm lateral longitudinal skin incision was made. The lateral approach was performed posterior to vastus lateralis without damaging the muscle. A bone defect, 0.1 cm×0.4 cm in size, on left femur was created at middle portion of shaft by using a 0.5 mm cone-shape bur. After that, the implant was inserted into the cavity and covered with […] ™ (Johnson & Johnson Medical Limited, Neuchatel, Switzerland) to fix the implant in place. Radiographs were taken to verify the correct position of the bone defect using the great trochanter as control point. At the end of operation, skin wounds were sutured. Six weeks after operation, animals were sacrificed for biomechanical and histological analysis.
Femoral bone specimens were harvested for histological study 6 weeks after implantation. […] The 5-mm thick bone sections were removed and stained with hematoxylin and eosin (H&E; Santa Cruz, Santa Cruz, Calif., USA). A microscope with 10×, 100×, 400× magnification, equipped with a digital CCD camera (Eclipse 50i; Nikon Inc., Mich., USA), were used for images of the sections.
The subject of assay [2] is rat femur bone defect. Description: Rat femur bone defect model, micro-CT trabecular bone volume. Particulars: 6 weeks after surgery; for trabecular bone volume in the femoral defect site: normalized with total defect length.
Experimental: For anesthesia, an intraperitoneal injection with a mixture of ketamin hydrochloride (100 mg/ml per 80 mg/kg body weight) and xylazin 2% (12 mg/kg body weight) were used. The left thigh was shaved and a 3 cm lateral longitudinal skin incision was made. The lateral approach was performed posterior to vastus lateralis without damaging the muscle. A bone defect, 0.1 cm×0.4 cm in size, on left femur was created at middle portion of shaft by using a 0.5 mm cone-shape bur. After that, the implant was inserted into the cavity and covered with […] ™ (Johnson & Johnson Medical Limited, Neuchatel, Switzerland) to fix the implant in place. Radiographs were taken to verify the correct position of the bone defect using the great trochanter as control point. At the end of operation, skin wounds were sutured.
Animals were anesthesia during micro-CT images scanning. Small animal micro-CT (Skyscan 1076, Bruker, Belgium) was employed for analyzing bone repair process in living animals and calculated by image software (CTAn) at the desired time point. The scan conditions were set at an aluminum filter of 0.5mm, 35 μm scanning resolution, x-ray voltage of 50 KV, x-ray current of 200 mA and an exposure time of 600 m-seconds. The area used for analysis began at the defect site close to femoral head and through all the defect area. Total volume indicated the inner area of cortical bone. Trabecular bone volume indicated the total trabecular bone within the total volume. Trabecular bone volume was normalized with total defect length in each rat.
Assay [3] has as its system rat femur bone defect. Description: Rat femur bone defect model, 3-point bending test. Particulars: post-surgery 6 weeks.
Experimental: as §1
The present invention employed 3-point bending test to analyze the mechanical property at the end of experiment. Counterlateral femoral bone served as a non-defect femoral bone.
Mechanical property of bone: 3-point bending test: For testing the mechanical property of the repaired femoral defect, the Instron 4466 (model 4465; Instron, Canton, Mass.) was employed for mechanical tests. The rat femur was removed from body and all the connective tissues were stripped off. For 3-point bending, the femur bone was positioned onto two supports, and a single-pronged loading device was applied to the opposite surface at a point precisely in the middle between the two supports. The distance between two supports was 4 cm. Loading force was 1N with speed of 1 mm/min. The experimental procedure involved the measurement of the deflection of the bone at the point of load application and the concurrent measurement of the load, yielding a force-deflection graph. Parameters obtained from this graph include whole-bone stiffness (defined as the slope of the early, linear portion of the load-deflection curve), yield point, maximal load and fracture load. The Young's modulus of the material from the geometry of the loading device and the stiffness of the bone were measured. The data calculations were all based on beam theory and the Hooke's law.
The subject of assay [4] is bone morphogenetic protein-2 (BMP-2). Particulars: 6 weeks after implantation, versus PLGA group.
Experimental: as §1
The 5 μm thick sections of femoral bone were incubated in 0.1% EDTA for 10 min at 100 degree for antigen retrieval. Immunohistochemistry (IHC) was performed using the Immuno Cruz Staining System (Santa Cruz). After incubating with 5% BSA/PBS (Sigma, Saint Louis, Mo., USA) blocking solution for 2 h at room temperature, sections were labeled with human-specific anti-BMP2 (dilution 1:50; Abcam) overnight at 4 degree in a humid chamber. […]

“poly(lactic-co-glycolic acid) cross-linked alendronate [PLGA-ALN]”: the “cortical bone thickness and trabecular bone (H&E) versus PLGA group” value in assay [1] was “Thicker cortical bone and more trabecular bone”. Further, in assay [2] (5 mg implant), the “trabecular bone volume relative to the control or PLGA group” value is listed as 2 times and the “trabecular bone volume in the femoral defect site” value is on record as 1.413±0.21. In assay [2] (10 mg implant), the “trabecular bone volume relative to the control or PLGA group” value came out at 2 times and the “trabecular bone volume in the femoral defect site” value is 1.45±0.35. Also, in assay [3] (5 mg implant), the “Young's modulus” value is on record as 0.43±0.03 GPa, the maximal strength amounted to 172.5±18.2 N and the total energy absorption is given as 106.43±15.36 mm*N. Further, in assay [3] (10 mg implant), the “Young's modulus” value was found to be 0.51±0.03 GPa, the maximal strength is recorded as 191.7±11.7 N and the total energy absorption came out at 110.71±9.95 mm*N. Besides, the “immunolocalized BMP-2 in the repaired cortical bone and trabecular bone” value in assay [4] was “predominant”.

(Values after patent publication US9889225B2 (KAOHSIUNG MEDICAL UNIVERSITY, priority 2010, dated 2018).)
